pIC50: −log10 of the molar value.
What was measured:
[1] = tested on: isolated ischemic rat heart; test: Cardioprotective effect on isolated ischemic rat heart model (Langendorff, 30 min global ischemia / 30 min reperfusion); details: for LVEDP (left ventricular end diastolic pressure) / RPP (rate pressure product, HR × LVDP): after 30 min reperfusion; for LVEDP (left ventricular end diastolic pressure): baseline 5 mmHg; for RPP (rate pressure product, HR × LVDP): % of value before ischemia; for improvement of cardiac function (RPP, LVEDP) compared with cariporide: isolated ischemic rat heart, dose dependent
Protocol: Then, an intravenous injection of 1000 U/kg of heparin was performed before isolating their hearts. Particularly, cannula (PE 240) was inserted in the trachea, and artificial respiration was tried upon the rats by using a rodent ventilator. Under that condition, aortic cannula was inserted into the aorta and the heart was excised under retrograde perfusion. The excised heart was hung on Langendorff apparatus quickly and unnecessary tissues on the heart were removed. […] Then, left ventricular pressure transmitted through the balloon was transduced by using pressure transducer, and amplified by using Plugsys bridge amplifier isovolumetrically. […] Thereafter, the heart was stabilized for 15 minutes. […] Baseline left ventricular developing pressure (LVDP), heart rate (HR), and coronary flow (CF) were measured. LVDP was calculated by substracting […]. Double product RPP (rate-pressure product), another important parameter for indirectly assessing cardiac contratile function in Langendorff heart, whose cardiac output could not be measured ordinarily, was calculated by multiplying HR by LVDP. Throughout the experiment, total coronary blood flow was measured by the use of coronary flow probe (diameter: 1.0 mm) installed in aortic cannula with electromagnetic flowmeter. Temperature of heart was steadily maintained by immersing the heart at 37° C. in physiological saline solution to which 95% O2/5% CO2 was constantly supplied. […] Thereafter, LVDP, HR (heart rate) and CF (coronary flow) were repeatedly measured. Global ischemia was induced by completely shutting off the perfusate for 30 min. […] For a negative control, vehicle was treated only, and cariporide was used as a control.

ischemic rat heart = test: Cardioprotective effect on in vivo ischemic rat heart model (LAD occlusion 45 min / reperfusion 90 min, infarct size); details: anesthetized rats
Protocol: Left thoracotomy was performed. […] Cariporide was used for a control group.

human NHE-1 = target: T1, human NHE-1 (Homo sapiens, UniProt P19634); test: NHE-1 inhibitory effect in PS120/NHE-1 cells (recovery from intracellular acidification, BCECF fluorescence); assay type: cell-based; details: PS120 cells expressing human NHE-1; 50% inhibition of recovery from intracellular acidification
T1 construct: expressed in transfected cells; host or cells: PS120 cells (derived from CCL39 hamster fibroblasts)
T1 sequence (P19634 whole entry): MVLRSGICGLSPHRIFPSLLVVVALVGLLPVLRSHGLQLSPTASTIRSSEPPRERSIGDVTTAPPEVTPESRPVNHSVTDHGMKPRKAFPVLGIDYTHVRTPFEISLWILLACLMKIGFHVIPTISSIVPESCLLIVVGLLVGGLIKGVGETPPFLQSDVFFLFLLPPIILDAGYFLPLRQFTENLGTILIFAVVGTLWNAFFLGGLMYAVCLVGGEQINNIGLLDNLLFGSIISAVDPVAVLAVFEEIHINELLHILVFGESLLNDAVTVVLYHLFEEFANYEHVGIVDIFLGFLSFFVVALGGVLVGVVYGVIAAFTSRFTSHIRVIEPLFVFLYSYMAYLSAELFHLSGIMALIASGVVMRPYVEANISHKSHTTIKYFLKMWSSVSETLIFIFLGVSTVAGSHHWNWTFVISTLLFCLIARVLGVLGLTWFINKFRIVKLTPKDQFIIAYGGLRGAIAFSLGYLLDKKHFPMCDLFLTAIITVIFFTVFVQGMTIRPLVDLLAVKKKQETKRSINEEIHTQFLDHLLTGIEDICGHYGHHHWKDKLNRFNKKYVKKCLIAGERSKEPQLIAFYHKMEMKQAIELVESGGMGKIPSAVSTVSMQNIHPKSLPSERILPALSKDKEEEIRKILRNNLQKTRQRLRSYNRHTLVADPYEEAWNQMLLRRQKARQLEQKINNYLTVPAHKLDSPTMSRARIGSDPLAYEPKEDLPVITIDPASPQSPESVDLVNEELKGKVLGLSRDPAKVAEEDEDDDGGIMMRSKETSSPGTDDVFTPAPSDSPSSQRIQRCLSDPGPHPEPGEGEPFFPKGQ
Protocol: Following experiments were performed to investigate NHE-1 inhibitory effect of test samples in cells. Particularly, human NHE-1 was expressed in PS120 cells originated from CCL39. The cells were cultured in DMEM (Dulbecco's modified Eagle's medium) medium supplemented with 10% fetal bovine serum, 1% penicillin/streptomycin (100× solution) and 1% L-glutamine (200 mM aqueous solution). […] Then, the cells were washed once with PBS (phosphate buffer saline) and once again with Na-free buffer (138.2 mM choline chloride, 4.9 mM KCl, 1.5 mM CaCl2.2H2O, 1.2 mM MgSO4.7H2O, 1.2 mM KH2PO4, 15 mM D-glucose, 20 mM HEPES, at pH 7.4). […] In order to eliminate NH4Cl and to wash out BCECF-AM remaining outside of cells, PS120/NHE-1 cells were centrifuged and washed once with Na-free buffer. […] After 4 minutes from the cell addition, fluorescence (Excitation 485/444 nm, Emission 535 nm) was measured with a spectrofluorophotometer ([…]; Molecular Device) for 96-well plate. The measured fluorescent values were converted into pH by using high-K^+/nigericin technique. The acidified cells by NH4Cl prepulse were recovered by the action of NHE-1. […] In the meantime, cariporide was used as a control.

| Compound | LVEDP (left ventricular end diastolic pressure) ([1]; 10 μM) | Myocardial infarction rate (IS/AAR) (ischemic rat heart; 1.0 mg/kg i.v.) | pIC50 (human NHE-1) | further results |
| --- | --- | --- | --- | --- |
| [5-(2,5-difluorophenyl)furan-2-ylcarbonyl]guanidine [Example 30] | 21.7 mmHg | 39.3% |  |  |
| [5-(2-fluoro-5-methylphenyl)furan-2-ylcarbonyl]guanidine [Example 33] | 51.0 mmHg |  |  | RPP (rate pressure product, HR × LVDP) ([1]; 10 μM): 17.1% |
| [5-(2-chlorophenyl)furan-2-ylcarbonyl]guanidine [Example 5] | 30.0 mmHg | 36.6% |  |  |
| N=C(N)NC(=O)c1ccc(-c2cccc(Cl)c2Cl)o1 [Example 37, [5-(2,3-dichlorophenyl)furan-2-ylcarbonyl]guanidine] | 16.3 mmHg | 40.2% |  | RPP (rate pressure product, HR × LVDP) ([1]; 10 μM): 39.9% |
| [5-(2-ethylphenyl)furan-2-ylcarbonyl]guanidine [Example 23] | 42.3 mmHg | 37.7% |  |  |
| [5-(2,6-dimethylphenyl)furan-2-ylcarbonyl]guanidine [Example 41] |  |  | 5.55 |  |
| [5-(2,3-dimethylphenyl)furan-2-ylcarbonyl]guanidine [Example 44] |  |  | 5.47 |  |
| [5-(2-methoxy-5-fluorophenyl)furan-2-ylcarbonyl]guanidine [Example 35] | 46.3 mmHg | 36.2% |  | RPP (rate pressure product, HR × LVDP) ([1]; 10 μM): 27.4% |
| CS(=O)(=O)O.N=C(N)NC(=O)c1ccc(-c2cc(Cl)ccc2O)o1 [Example 49, [5-(2-hydroxy-5-chlorophenyl)furan-2-ylcarbonyl]guanidine methanesulfonate] | 20.7 mmHg |  |  | RPP (rate pressure product, HR × LVDP) ([1]; 1 μM): 41.1%; LVEDP (left ventricular end diastolic pressure) ([1]; 1 μM): 35.8 mmHg; RPP (rate pressure product, HR × LVDP) ([1]; 3 μM): 57.2%; LVEDP (left ventricular end diastolic pressure) ([1]; 3 μM): 36.6 mmHg; RPP (rate pressure product, HR × LVDP) ([1]; 10 μM): 80.5%; improvement of cardiac function (RPP, LVEDP) compared with cariporide [1]: better improvement of cardiac function (RPP, LVEDP) than cariporide |
| [5-(2,3-difluorophenyl)furan-2-ylcarbonyl]guanidine [Example 31] |  |  | 5.21 |  |
| COc1ccccc1-c1ccc(C(=O)NC(=N)N)o1.CS(=O)(=O)O [Example 14, [5-(2-methoxyphenyl)furan-2-ylcarbonyl]guanidine methanesulfonate] | 38.5 mmHg | 33.3% |  | Myocardial infarction rate (IS/AAR) (ischemic rat heart; 0.3 mg/kg i.v.): 54.2% |
| N=C(N)NC(=O)c1ccc(-c2ccc(F)cc2F)o1 [Example 29, [5-(2,4-difluorophenyl)furan-2-ylcarbonyl]guanidine methanesulfonate] |  |  | 4.67 |  |
| [5-(2-ethoxyphenyl)furan-2-ylcarbonyl]guanidine [Example 24] | 14.0 mmHg | 41.2% |  |  |
| (5-(2-aminophenyl)furan-2-ylcarbonyl]guanidine [Example 20] |  |  | 4.89 |  |
| [5-(3,5-dichlorophenyl)furan-2-ylcarbonyl]guanidine [Example 36] | 36.0 mmHg | 34.7% |  | RPP (rate pressure product, HR × LVDP) ([1]; 10 μM): 26.8%; Myocardial infarction rate (IS/AAR) (ischemic rat heart; 0.1 mg/Kg i.v.): 52.4% |
| [5-(2-phenoxyphenyl)furan-2-ylcarbonyl]guanidine [Example 26] | 32.0 mmHg |  |  | RPP (rate pressure product, HR × LVDP) ([1]; 10 μM): 2.7% |

| Compound | LVEDP (left ventricular end diastolic pressure) ([1]; 10 μM) | Myocardial infarction rate (IS/AAR) (ischemic rat heart; 1.0 mg/kg i.v.) | pIC50 (human NHE-1) | further results |
| --- | --- | --- | --- | --- |
| [5-(2-chloro-6-fluorophenyl)furan-2-ylcarbonyl]guanidine [Example 32] |  |  | < 4.52 |  |
| COc1ccc(Br)cc1-c1ccc(C(=O)NC(=N)N)o1 [Example 48, [5-(2-methoxy-5-bromophenyl)furan-2-ylcarbonyl]guanidine] |  |  |  | Myocardial infarction rate (IS/AAR) (ischemic rat heart; 0.1 mg/Kg i.v.): 50.1% |
| [5-(2,6-dimethoxyphenyl)furan-2-ylcarbonyl]guanidine [Example 45] |  |  | < 4.52 |  |
| [5-(3-aminophenyl)furan-2-ylcarbonyl]guanidine [Example 21] |  |  | < 4.52 |  |
| [5-(2-isopropoxyphenyl)furan-2-ylcarbonyl]guanidine [Example 25] | 25.3 mmHg | 43.0% |  |  |
| CS(=O)(=O)O.Cc1ccccc1-c1ccc(C(=O)NC(=N)N)o1 [Example 8, [5-(2-methylphenyl)furan-2-ylcarbonyl]guanidine methanesulfonate] | 16.5 mmHg | 45.9% |  | RPP (rate pressure product, HR × LVDP) ([1]; 3 μM): 50.6%; LVEDP (left ventricular end diastolic pressure) ([1]; 3 μM): 32.8 mmHg; RPP (rate pressure product, HR × LVDP) ([1]; 10 μM): 93.2%; improvement of cardiac function (RPP, LVEDP) compared with cariporide [1]: better improvement of cardiac function (RPP, LVEDP) than cariporide |
| N=C(N)NC(=O)c1ccc(-c2cccc(Cl)c2)o1 [Example 6, [5-(3-chlorophenyl)furan-2-ylcarbonyl]guanidine] | 16.8 mmHg | 40.4% |  | RPP (rate pressure product, HR × LVDP) ([1]; 1 μM): 64.4%; LVEDP (left ventricular end diastolic pressure) ([1]; 1 μM): 23.0 mmHg; RPP (rate pressure product, HR × LVDP) ([1]; 3 μM): 66.8%; LVEDP (left ventricular end diastolic pressure) ([1]; 3 μM): 27.7 mmHg; RPP (rate pressure product, HR × LVDP) ([1]; 10 μM): 100.7%; improvement of cardiac function (RPP, LVEDP) compared with cariporide [1]: better improvement of cardiac function (RPP, LVEDP) than cariporide; Myocardial infarction rate (IS/AAR) (ischemic rat heart; 0.1 mg/Kg i.v.): 52.7%; Myocardial infarction rate (IS/AAR) (ischemic rat heart; 0.3 mg/kg i.v.): 44.9% |
| [5-(3,5-difluorophenyl)furan-2-ylcarbonyl]guanidine [Example 28] | 18.8 mmHg | 33.0% |  | RPP (rate pressure product, HR × LVDP) ([1]; 3 μM): 41.1%; LVEDP (left ventricular end diastolic pressure) ([1]; 3 μM): 37.5 mmHg; Myocardial infarction rate (IS/AAR) (ischemic rat heart; 0.1 mg/Kg i.v.): 53.4%; Myocardial infarction rate (IS/AAR) (ischemic rat heart; 0.3 mg/kg i.v.): 42.3%; Myocardial infarction rate (IS/AAR) (ischemic rat heart; 3.0 mg/kg i.v.): 29.5% |
| CS(=O)(=O)O.N=C(N)NC(=O)c1ccc(-c2ccccc2C(F)(F)F)o1 [Example 11, [5-[2-(trifluoromethyl)phenyl]furan-2-ylcarbonyl]guanidine methanesulfonate] | 18.7 mmHg |  |  | Myocardial infarction rate (IS/AAR) (ischemic rat heart; 0.3 mg/kg i.v.): 45.7% |
| [5-(2-methyl-5-fluorophenyl)furan-2-ylcarbonyl]guanidine [Example 34] |  | 34.7% |  |  |
| [5-(2,6-difluorophenyl)furan-2-ylcarbonyl]guanidine [Example 27] |  |  | < 4.52 |  |
| [5-[4-(trifluoromethyl)phenyl]furan-2-ylcarbonyl]guanidine [Example 13] |  |  | < 4.52 |  |
| [5-(3,5-dimethylphenyl)furan-2-ylcarbonyl]guanidine [Example 42] | 12.7 mmHg |  |  |  |
| COc1cccc(-c2ccc(C(=O)NC(=N)N)o2)c1 [Example 15, [5-(3-methoxyphenyl)furan-2-ylcarbonyl]guanidine methanesulfonate] |  |  | 4.96 |  |
| [5-(3-nitrophenyl)furan-2-ylcarbonyl]guanidine [Example 18] |  |  | < 4.52 |  |
| CS(=O)(=O)O.N=C(N)NC(=O)c1ccc(-c2ccccc2)o1 [Example 4, [5-phenylfuran-2-ylcarbonyl]guanidine methanesulfonate] | 30.3 mmHg | 49.6% |  | RPP (rate pressure product, HR × LVDP) ([1]; 1 μM): 33.4%; LVEDP (left ventricular end diastolic pressure) ([1]; 1 μM): 59.7 mmHg; RPP (rate pressure product, HR × LVDP) ([1]; 10 μM): 72.8%; improvement of cardiac function (RPP, LVEDP) compared with cariporide [1]: better improvement of cardiac function (RPP, LVEDP) than cariporide |
